Legend:
Format in all cases: cell-based, human
HO-1 = HO-1 mRNA by RT-qPCR; settings: 48 h
Method: LUHMES cells were seeded on PLO/FN coated 6-well microplates and the pharmacological treatments were performed as previously explained. The cells were washed in HBSS, prior to being collected for mRNA isolation (RNeasy® Plus Mini Kit, Qiagen, Venlo, Netherlands), following the manufacturer’s instructions. The mRNA concentrations were determined on a Nano-Drop 2000c (Thermo Fisher Scientific) and 1 µg of mRNA was reverse-transcribed into cDNA with the iScript™ Reverse Transcription Supermix for RT-qPCR Kit (Bio-Rad) on a thermal cycler (SensoQuest, Göttingen, Germany). Real-time PCR was performed using SYBR™ Select Master Mix for CFX (Thermo Fisher Scientific) with 30 ng cDNA and 0.4 µM of primers against the respective target genes (Supplementary Table S3), in a 20 µl total volume, on a CFX96 Touch™ Real-Time Cycler (Bio-Rad). The relative expression of mRNA was calculated using the CFX Manager software (ΔΔCt method) from Bio-Rad, and the Ct values of the target-genes were normalized to the reference genes RPL22 and UBQLN1. The data were reported as fold change relative to the control (DMSO-treated) condition.

LUHMES cells [1] = assay: Mitochondrial membrane potential (JC-1 probe); settings: 24 h
Method: In PLO/FN-coated 24-well microplates, cells were simultaneously incubated with 20 nM of annonacin and the selected concentrations of Nrf2-pathway activators, in glucose-reduced medium, over the course of 24 h. After that, the medium was removed and cells were washed once with warm HBSS, followed by incubation with 5 µM JC-1 solution in HBSS, for 20 min at 37 °C. For the positive control, the mitochondrial oxidative phosphorylation uncoupler, CCCP, was used at a concentration of 50 µM. After the incubation period, cells were washed with HBSS, and fresh HBSS was added to keep the cells viable during live-image acquisition. Image acquisition was done on a fluorescence microscope Leica-DFC9000GTC (Leica, Frankfurt, Germany). Environmental conditions were kept steady at 37 °C with a 5% CO2 atmosphere during the entire acquisition time. Ten to fifteen images from different fields of view, dispersed across triplicates, were acquired with 200 × magnification (20 × objective, 10 × intermediate magnification), using the same image acquisition parameters for all conditions. The fluorescence of JC-1 monomers was captured on the green channel (λ Ex/Em = 475/519 nm) and the fluorescence of JC-1 aggregates was capture on the red channel (λ Ex/Em = 555/594 nm). Quantification of FI (fluorescence intensities) of JC-1 monomeric and aggregated forms was done using the ImageJ software (http://rsb.info.nih.gov/ij/, ImageJ bundled with 64-bit Java 8). Briefly, TIFF exported images were submitted to background subtraction using the rolling ball method with a radius of 50 pixels. Channel-specific thresholds were applied to all images to define the ROI (region of interest) and FI were measured as integrated density. Data were reported as the ratio between JC-1 aggregates and monomers, obtained by dividing the FI of the JC-1 aggregated form by the FI of the monomeric form.

LUHMES cells [2] = assay: Mitochondrial superoxide (MitoSOX / calcein AM); settings: 48 h
Method: As before, cells seeded on PLO/FN-coated 24-well microplates were treated for 48 h with 20 nM of annonacin and the selected concentrations of Nrf2-pathway activators, in glucose-reduced medium. After this period, the medium was removed, and the cells were washed once with warm HBSS before being simultaneously incubated with 0.5 µM of MitoSOX™ red (Thermo Fisher Scientific) and 1 µM of calcein AM for 30 min at 37 °C. Next, the cells were again washed with HBSS and fresh HBSS was added to maintain cell viability during live-image acquisition on a fluorescence microscope Leica-DFC9000GTC (Leica). The cells were kept under controlled environmental conditions, and similar image acquisition parameters were used for all images, as explained before. We acquired ten to fifteen images per condition, from different view fields across triplicates, with a 200 × magnification (20 × objective, 10 × intermediate magnification). Quantification of MitoSOX and calcein AM FI was performed using the ImageJ software. Briefly, TIFF exported images were submitted to background subtraction using the rolling ball method with a radius of 50 pixels. Channel-specific thresholds were applied to all images to define the ROI, and the FI were measured as integrated density and reported as arbitrary units (a. u.). The MitoSOX FI was normalized to cell viability estimated by calcein AM FI, to obtain a MitoSOX FI/calcein FI ratio. The average ratio of the different view fields per experimental condition was taken and reported as fold change relative to the control (DMSO-treated) condition.

[3] = presence of 20 nM annonacin, vs DMSO control under annonacin
[4] = protective concentration of compound + 20 nM annonacin

Row | SMILES | HO-1 mRNA expression (HO-1; absence of annonacin) | HO-1 mRNA expression (HO-1; [3]) | mitochondrial membrane potential (JC-1 aggregates/monomers ratio) (LUHMES cells [1]; [4]) | MitoSOX/calcein ratio (LUHMES cells [2]; [4]) | HO-1 mRNA expression (HO-1; 20 nM annonacin alone (DMSO control condition) vs DMSO control without annonacin) | mitochondrial membrane potential (JC-1 aggregates/monomers ratio) (LUHMES cells [1]; 20 nM annonacin alone, glucose-reduced medium) | MitoSOX fluorescence intensity (LUHMES cells [2]; 20 nM annonacin alone) | MitoSOX/calcein ratio (LUHMES cells [2]; 20 nM annonacin alone)
1 | Cn1c(Nc2nc3ccc(C(F)(F)F)cc3s2)nc2cc(C(=O)NCCOCCO)ccc21 [HPP-D] | 19 fold over DMSO control | significantly rescued from this downregulation | rescue the ΔψM from annonacin-induced depolarization | to control levels | – | – | – | –
2 | CCCCCCCCCCCC[C@@H](O)[C@H]1CC[C@H]([C@H](O)CCCC[C@H](O)CCCCC[C@@H](O)CC2=CC(C)OC2=O)O1 (stereo partly drawn) [annonacin] | – | – | – | – | downregulation of both target-genes | significant mitochondrial depolarization | no major changes in MitoSOX fluorescence intensity | significantly increased
3 | O=C1[C@H](CC[C@H](O)c2ccc(F)cc2)[C@@H](c2ccc(O)cc2)N1c1ccc(F)cc1 [ezetimibe] | did not induce significant changes | did not induce significant changes | aggravated mitochondrial depolarization | to control levels | – | – | – | –
4 | C=CC(C)(C)c1cc(/C=C/C(=O)c2ccc(O)cc2)c(OC)cc1O [licochalcone A] | – | significantly rescued from this downregulation | aggravated mitochondrial depolarization | to levels below control | – | – | – | –
